One assay deals with RORγ. Also on record: method as in ToxCast database released in October 2015. The following applies: active/inactive call; ref ToxCast database released in October 2015; cited from earlier work.
Assay [1] concerns the target T1, PPARγ ligand binding domain (204–477) (Homo sapiens, UniProt P37231).
T1 construct: GST (N, cleaved yes); made in house; host or cells: E. coli BL21(DE3)
T1 sequence (P37231 204-477 isoform P37231-2): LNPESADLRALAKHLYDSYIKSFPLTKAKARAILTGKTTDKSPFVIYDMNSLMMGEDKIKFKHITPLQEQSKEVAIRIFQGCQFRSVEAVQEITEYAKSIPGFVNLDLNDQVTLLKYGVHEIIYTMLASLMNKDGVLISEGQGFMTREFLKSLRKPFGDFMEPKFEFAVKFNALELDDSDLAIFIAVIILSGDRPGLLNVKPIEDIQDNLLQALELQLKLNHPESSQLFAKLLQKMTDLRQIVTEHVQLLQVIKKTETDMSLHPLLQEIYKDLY
Nature of the assay: Surface plasmon resonance (SPR) analysis of fatty acid binding to immobilized PPARγ LBD. The following applies: for Rmax: SPR steady-state fit, FUA: chip coupled with 12000RU; for binding to PPARγ in SPR (in words): compared with DHA and EPA; for Kd: steady-state fit, Biacore T200, chip about 6500 RU (FUA: chip coupled with 12000RU PPARγ LBD). As to the method: The protein was firstly purified using a glutathione Sephararose 4B column, followed by PreScission protease cleavage to remove the GST-tag. […] The finally collected protein in 20 mM Tirs, pH8.0, 150 mM NaCl and 2 mM DTT was concentrated to 20 mg/ml. The purity was checked by SDS-PAGE and protein was stored at − 80 °C for use.
PPARγ (0.05 mg/ml) were coupled onto CM5 sensor chips according to amine coupling procedure from the manufacturer’s manual. […] A reference channel was generated at same conditions without protein injection and used as a blank control to correct the instrument or buffer artifacts. Fatty acids were dissolved in DMSO and diluted with concentration ranging from 0.78 to 50 μM, and injected at a flowrate of 40 μL/min. Each sensorgram consists of an association phase (120 s), indicating the binding of the injected compound to the protein, followed by a dissociation phase (300 s) during which the running buffer (10 mM phosphate buffer, 150 mM NaCl, 5% DMSO, 0.05% Tween 20, pH 7.4) is passed over and the bound compounds were eluted from the chip surface. The Kd was calculated by steady-state binding fitting method in Biacore T200 evaluate the software.

The subject of the next assay is GR. Also noted: method as in ToxCast database released in October 2015. The following applies: active/inactive call; ref ToxCast database released in October 2015; cited from earlier work.
The test system of the next assay is PR. Also on record: method as in ToxCast database released in October 2015. The note with it: active/inactive call; ref ToxCast database released in October 2015; cited from earlier work.
Another assay relates to AR. Also noted: method as in ToxCast database released in October 2015. The following applies: active/inactive call; ref ToxCast database released in October 2015; cited from earlier work.
Another assay relates to PPARα. Also noted: method as in ToxCast database released in October 2015. The note with it: active/inactive call; ref ToxCast database released in October 2015; cited from earlier work.

In general, Kd refers to a measure of binding affinity in units of concentration.

“Also recorded” adds a separate entry of the source. Where only a bound is given, the exact number is not on record here.

Turning to `CC(C)c1cccc(C(C)C)c1N1C(=O)c2ccc(O)cc2C1=O` [5HPP-33], the “ToxCast activity against RORγ” value with RORγ is “active”.
On to `CC/C=C\C/C=C\C/C=C\C/C=C\C/C=C\C/C=C\CCC(=O)O` [DHA, Docosahexaenoic acid, reference compound], for which the Rmax in assay [1] is listed as 281 RU.
Regarding `CC/C=C\C/C=C\C/C=C\C/C=C\C/C=C\CCCCCC(=O)O` [DPA, docosapentaenoic acid], in assay [1], the Rmax is 2167 RU; the “binding to PPARγ in SPR (in words)” value is “weaker binding than DHA; also recorded: confirmed to bind to PPARγ, weaker than DHA and EPA”; the Kd came out at 3960 µM.
For the compound `CC/C=C\C/C=C\C/C=C\C/C=C\C/C=C\CCCC(=O)O` [EPA, Eicosapentaenoic acid, reference compound], in assay [1], the Rmax turned out to be 136 RU and binding was characterised by a dissociation constant (Kd) of 629 µM.
In the case of `CC(C)[C@H](C(=O)O[C@H](C#N)c1cccc(Oc2ccccc2)c1)c1ccc(Cl)cc1` [Esfenvalerate], the “ToxCast activity against GR” value in the assay with GR is “active”.
For the compound `CCCCCc1cc(C)c(CCCCCCCCC(=O)O)o1` [FNA, 10,13-epoxy-11-methyloctadeca-10,12-dienoic acid], in assay [1], the Rmax is listed as 38.55 RU; the “binding to PPARγ in SPR (in words)” value was “stronger binding than DHA and EPA”; binding was characterised by a dissociation constant (Kd) of 136 µM.
On to `CCCc1cc(C)c(CCCCCCCCCCC(=O)O)o1` [FUA, 11-(3-methyl-5-propylfuran-2-yl)undecanoic acid], for which, in assay [1], the Rmax was found to be 459.3 RU; the “binding to PPARγ in SPR (in words)” value was “stronger binding than DHA and EPA”; the Kd stood at 249 µM.
In the case of `CC1(C)NC(=O)N(c2ccc([N+](=O)[O-])c(C(F)(F)F)c2)C1=O` [Nilutamide], in the assay on PR, the “ToxCast activity against PR” value is given as “active”.
`O=C(O)CN(CC(=O)O)CC(=O)O` [Nitrilotriacetic acid]: the “ToxCast activity against AR” value with AR is “active”.
On to `CCCCCCC1CC1CCCCCCCCCC(=O)O` (centres unmarked) [PTA, Phytomonic acid], for which, in assay [1], the Rmax is reported as 33.28 RU; the “binding to PPARγ in SPR (in words)” value is “stronger binding than DHA and EPA”; the affinity, expressed as Kd, was 103 µM.
Turning to `CCCCCC[C@@H](O)C/C=C\CCCCCCCC(=O)O` [ROA, ricinoleic acid], in assay [1], the Rmax is given as > 10,000.00 RU, the “binding to PPARγ in SPR (in words)” value is on record as “weaker binding than DHA” and the Kd is over 10000 µM.
For `CN1CCc2cccc3c2[C@H]1Cc1ccc(O)c(O)c1-3` [apomorphine, reference compound], the “ToxCast activity against PPARα” value with PPARα is “active”.
For the compound `CCOC(=O)C(C)OC(=O)c1cc(Oc2ccc(C(F)(F)F)cc2Cl)ccc1[N+](=O)[O-]` (centres unmarked) [lactofen], the “ToxCast activity against AR” value in the assay with AR is “active”.
With `O=c1c(O)c(-c2ccc(O)cc2O)oc2cc(O)cc(O)c12` [morin], the “ToxCast activity against PPARα” value in the assay with PPARα is “active”.
Consider `Cl.N=C1C=CC(=C(c2ccc(N)cc2)c2ccc(N)cc2)C=C1` [parafuchsin], for which the “ToxCast activity against RORγ” value with RORγ was “active”.
As for `Oc1ccc(/C=C/c2cc(O)cc(O)c2)cc1` [reservertol], in the assay with RORγ, the “ToxCast activity against RORγ” value is recorded as “active”.
Regarding `O=C(c1ccc(O)cc1O)c1ccc(O)cc1O` [tetrahydroxybenzophenone], the “ToxCast activity against AR” value in the assay on AR is listed as “active”.
With `CC1(C)CCC(=Cc2ccc(Cl)cc2)C1(O)Cn1cncn1` (centres unmarked) [triconazole], in the assay on AR, the “ToxCast activity against AR” value is listed as “active”.
On to eicosatrienoic acid [ESA], for which, in assay [1], the Rmax is on record as > 10,000.00 RU, the “binding to PPARγ in SPR (in words)” value is on record as “weaker binding than DHA” and the Kd is over 10000 µM.

The values are drawn from publication PMC7811525, “Virtual screening of potentially endocrine-disrupting chemicals against nuclear receptors and its application to identify PPARγ-bound fatty acids” (Archives of Toxicology, 2020).
